# Target: RIP3 (Homo sapiens, UniProt Q9Y572)
# Test: TNF (TSZ)-induced RIP3 and MLKL phosphorylation in HT-29 cells (immunoblot)
# Type: cell-based
# Parameters: RIP3-expressing HT-29 cells; endogenous in cells; host or cells: HT-29
# Method: Cells were rinsed in cold phosphate-buffered saline (PBS) and lysed in M2 buffer containing 20 mM Tris at pH 7, 0.5% NP-40, 250 mM NaCl, 3 mM EDTA, 3 mM EGTA, 2 mM DTT, 0.5 mM PMSF, 20 mM β-glycerol phosphate, 1 mM sodium vanadate, and 1 μg/mL leupeptin. The cell extracts were subjected to western blot analysis. For immunoprecipitation, lysates were mixed and precipitated with antibody and protein A-agarose beads overnight or for 4 h at 4 °C. Bound proteins were removed by boiling in SDS and resolved by SDS-PAGE, and immunoblotting was visualized by enhanced chemiluminescence (ECL, Amersham).
# Fig. 2 Novel inhibitors can block RIP3 S227 phosphorylation. a Western blotting showing various kinase inhibitor effects on RIP3 S227 auto-phosphorylation. HT-29 cells were treated with four tested kinase inhibitors (1308, 1336, 1338, and 1371, 10 μM) for 9 h. As a control, KK5101 (Trk alpha inhibitor) and HS829 (IKK beta inhibitor) were also treated at a concentration of 10 μM for 9 h. Prototypical necroptosis stimuli (TNF + zVAD + either cycloheximide or SMAC mimetic; hereafter referred to as TCZ or TSZ) were applied for 6 h. […] HT-29 cells were treated with 4 tested kinase inhibitors for 24 h, and cell viability was analyzed by MTT assay or phase-contrast microscopy. […] HT-29 cells were pretreated with necrostatin-1 (Nec-1, 40 μM), dabrafenib (DAB, 10 μM) or necrosulfonamide (NSA, 1 μM) for 2 h and then treated with TSZ for 6 h. […] HT-29 cells were pretreated with four tested kinase inhibitors for 2 h and then treated with TSZ for 6 h. Cell lysates were analyzed by immunoblotting. f HT-29 cells were pretreated with Nec-1 (40 μM), DAB (5 μM) or HS-1371 (5 μM) for 2 h and then treated with TSZ for 4 h. Cell lysates were immunoprecipitated with anti-RIP3 antibody. Immunoprecipitates and total lysates were analyzed by Western blotting
# TNFα Smac mimetic and the caspase inhibitor zVAD (hereafter referred to as TSZ) is a classical combination that is used to induce RIP3-mediated necroptotic cell death[10],[32]. We first verified that three established pharmacological inhibitors of necroptosis, necrostatin-1 (Nec-1), necrosulfonamide (NSA), and dabrafenib (DAB) could block TNF-induced necroptosis (Fig. 2d). Of these inhibitors, Nec-1 inhibits RIP1 kinase activity[33],[34], DAB inhibits RIP3 kinase activity, and NSA inhibits MLKL functions downstream of RIP3 phosphorylation. […] Next, we tested whether these four inhibitors would inhibit TNF-induced necroptosis signaling by blocking RIP3 kinase activity. […] The effect of HS-1371 on RIP3 kinase activity was compared with another RIP3 inhibitor, GSK’872[16].
# Chain of RIP3 (Q9Y572 whole entry): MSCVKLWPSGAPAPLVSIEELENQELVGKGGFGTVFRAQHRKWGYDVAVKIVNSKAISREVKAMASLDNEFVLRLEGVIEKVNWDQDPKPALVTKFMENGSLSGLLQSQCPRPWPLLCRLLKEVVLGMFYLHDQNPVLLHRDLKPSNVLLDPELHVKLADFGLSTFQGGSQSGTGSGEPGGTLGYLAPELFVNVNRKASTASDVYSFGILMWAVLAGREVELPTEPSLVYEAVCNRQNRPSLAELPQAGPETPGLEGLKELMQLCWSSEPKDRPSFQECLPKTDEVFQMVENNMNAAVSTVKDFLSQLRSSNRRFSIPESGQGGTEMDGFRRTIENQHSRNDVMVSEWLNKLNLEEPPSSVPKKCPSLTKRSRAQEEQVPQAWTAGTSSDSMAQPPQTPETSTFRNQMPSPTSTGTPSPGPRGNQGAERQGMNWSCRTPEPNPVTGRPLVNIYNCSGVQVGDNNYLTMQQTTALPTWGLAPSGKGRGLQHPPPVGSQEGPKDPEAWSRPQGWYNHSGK
compound,measurement,setting,value
"Cc1ccc(Oc2ccnc3cc(-c4cnn(C5CCNCC5)c4)ccc23)cc1 [HS-1371, 7-(1-(Piperidin-4-yl)-1H-pyrazol-4-yl)-4-(p-tolyloxy)quinoline]","RIP3 phosphorylation, pre-treatment and post-treatment","HT-29, 5 μM, pretreated 1 h or applied 1 or 2 h after induction",completely inhibited
same,"MLKL phosphorylation, post-treatment after TSZ","HT-29, post-treatment until approximately 5 h after TSZ",partially blocked
same,"RIP3 phosphorylation, pre-treatment and post-treatment, low concentrations","HT-29, pretreated 1 h or applied 1 or 2 h after induction, low concentrations",partial inhibitory effect
same,effect on TNF-induced necroptosis signaling (phosphorylation of RIP3 and MLKL),"HT-29, pretreated 2 h, TSZ 6 h",complete inhibitory effect

# Source: publication PMC6148246, “HS-1371, a novel kinase inhibitor of RIP3-mediated necroptosis” (Experimental & Molecular Medicine, 2018)
